Target: T1, α4β7 receptors on β7+CD4+CD45RO+ memory T cells (Homo sapiens, UniProt P13612+P26010)
T1 construct: endogenous in cells
T1 sequence (P13612 34-1032): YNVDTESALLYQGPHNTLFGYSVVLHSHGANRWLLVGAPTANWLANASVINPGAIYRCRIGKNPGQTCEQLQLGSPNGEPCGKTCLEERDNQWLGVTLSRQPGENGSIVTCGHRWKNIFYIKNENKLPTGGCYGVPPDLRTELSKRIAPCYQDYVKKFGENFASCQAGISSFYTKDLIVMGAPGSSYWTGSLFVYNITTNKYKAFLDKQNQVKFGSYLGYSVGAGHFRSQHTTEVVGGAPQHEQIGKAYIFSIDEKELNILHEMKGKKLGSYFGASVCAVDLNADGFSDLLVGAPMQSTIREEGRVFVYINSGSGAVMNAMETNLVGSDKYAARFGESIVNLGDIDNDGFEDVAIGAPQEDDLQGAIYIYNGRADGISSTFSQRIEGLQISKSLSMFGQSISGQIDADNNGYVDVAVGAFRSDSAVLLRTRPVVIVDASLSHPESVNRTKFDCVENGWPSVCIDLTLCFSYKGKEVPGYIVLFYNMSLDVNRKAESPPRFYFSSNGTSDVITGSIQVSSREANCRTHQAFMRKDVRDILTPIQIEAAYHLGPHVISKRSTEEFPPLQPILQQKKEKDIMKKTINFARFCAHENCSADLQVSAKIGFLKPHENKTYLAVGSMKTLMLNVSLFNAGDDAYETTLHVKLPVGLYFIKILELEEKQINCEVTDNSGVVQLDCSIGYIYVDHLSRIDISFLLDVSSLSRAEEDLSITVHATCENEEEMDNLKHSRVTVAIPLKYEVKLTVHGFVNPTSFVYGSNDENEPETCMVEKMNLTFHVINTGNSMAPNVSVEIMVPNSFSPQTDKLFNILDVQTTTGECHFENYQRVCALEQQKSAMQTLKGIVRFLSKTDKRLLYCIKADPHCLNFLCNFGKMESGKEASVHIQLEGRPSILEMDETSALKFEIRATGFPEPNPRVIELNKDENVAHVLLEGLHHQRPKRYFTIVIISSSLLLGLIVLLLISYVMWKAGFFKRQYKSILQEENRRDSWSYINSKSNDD
T1 sequence (P26010 20-798): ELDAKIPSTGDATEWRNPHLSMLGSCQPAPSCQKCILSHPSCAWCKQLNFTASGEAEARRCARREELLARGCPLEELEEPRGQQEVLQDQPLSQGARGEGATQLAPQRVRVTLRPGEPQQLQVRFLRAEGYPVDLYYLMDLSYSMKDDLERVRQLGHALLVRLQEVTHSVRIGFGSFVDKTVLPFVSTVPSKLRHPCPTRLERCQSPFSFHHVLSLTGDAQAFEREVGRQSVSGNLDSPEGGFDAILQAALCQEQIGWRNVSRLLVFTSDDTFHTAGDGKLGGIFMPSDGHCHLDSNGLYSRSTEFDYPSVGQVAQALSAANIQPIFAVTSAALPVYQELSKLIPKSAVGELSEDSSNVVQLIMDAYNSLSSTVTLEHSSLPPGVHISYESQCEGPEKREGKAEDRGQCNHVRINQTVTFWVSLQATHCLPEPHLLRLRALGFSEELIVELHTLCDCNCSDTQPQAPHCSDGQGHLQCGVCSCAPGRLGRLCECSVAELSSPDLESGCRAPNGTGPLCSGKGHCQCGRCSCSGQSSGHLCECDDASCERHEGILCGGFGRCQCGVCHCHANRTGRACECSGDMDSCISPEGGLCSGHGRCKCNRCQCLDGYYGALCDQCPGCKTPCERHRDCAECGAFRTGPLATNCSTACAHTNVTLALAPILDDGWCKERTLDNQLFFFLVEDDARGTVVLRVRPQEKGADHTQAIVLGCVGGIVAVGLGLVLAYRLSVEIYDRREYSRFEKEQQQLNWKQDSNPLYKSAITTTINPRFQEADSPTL
Assay: Whole blood α4β7 receptor occupancy (RO) assay by flow cytometry in SAD and MAD cohorts
Format: in vivo
Settings: for time post last dose (Day 14) until which α4β7 % RO≥95% was sustained: 100% of participants
Method: Formula (III) is a prodrug of Formula (I) and undergoes a rapid conversion to its active metabolite (Formula (I)) when administered to a human. The pharmacodynamics (PD) of the active metabolite of Formula (III) were analyzed in healthy volunteers by measuring the metabolites receptor occupancy (RO) on α4β7 receptors in whole blood to inform Formula (III) dose selection and schedule.
A whole blood RO assay was developed and fit-for-purpose-validated that measures free α4β7 receptors on […] memory T cells in fresh whole blood by flow cytometry. The β7+CD4+CD45RO+ memory T-cells were identified using a staining panel comprised of fluorescently labelled anti-CD3, -CD4, -CD8, -CD45RO, and -β7 antibodies (Biolegend) (Table 14) as soon as possible after blood collection. Biotinylated human MAdCAM-1 protein, the natural ligand for α4β7, is mixed with streptavidin PE dextramer (Immudex) (MDX) and added to the whole blood in the presence of the divalent cation manganese (as MnCl2). MDX and the metabolite compete for binding to the α4β7 integrin receptor. Specimen data are acquired immediately on a BD LSRFortessa X-20 Cell Analyzer flow cytometer using a α4β7 RO cell acquisition template and application settings. The gating strategy is as follows: lymphocytes are gated based on size (FSC-A) and complexity (SSC-A). Doublets are removed using FSC-A/FSC-H. CD3+ lymphocytes are further differentiated into CD4+ and CD8+ T cells. CD4+CD45RO+ positive T cells are gated on β7 integrin and MDX positivity. The fluorescent intensities of PE-MDX β7+CD4+CD45RO+ memory T cells in pre-dose and post-dose whole blood are used to calculate the % RO post-dose. The lower level of quantification (LLOQ) of the assay was estimated to be ˜40% for a single measurement; similarly, the a4b7 RO assay was fit-for purpose validated to precisely quantify % RO up to 95% RO. Actual measured values <40% RO and ≥95% RO are shown but represent best estimates.
Whole blood was collected pre- and post-Formula (III) or placebo to match (PTM) administration and percent α4β7 RO was calculated for all postbaseline time points in the SAD and MAD cohorts of the study. α4β7% RO was evaluated in all participants in Part A (SAD, Formula (III) 20 mg, 60 mg, 200 mg, 500 mg, and 1000 mg administered in liquid filled capsules under fasting conditions), and in Part B (MAD, Formula (III) 20 mg, 80 mg, 200 mg, 500 mg in liquid filled capsules under non-fasting conditions and Formula (III) 200 mg in tablet formulation under fasting conditions). In total, 2,506 samples collected at 35 different time-points from 109 unique participants were analyzed for α4β7% RO.

CCOC(=O)[C@H](Cc1ccc(-n2c(=O)c3ccncc3n(C)c2=O)c2ncccc12)NC(=O)c1c(C)cc(N2CCOC[C@@H]2C(F)(F)F)cc1F (atropisomer, axis not shown) [Formula (III)]
time until which full target engagement could possibly be achieved (200 mg capsule nonfasting, after last dose): approximately 48 h
α4β7 % RO 72 h postdose, average (200 mg capsule nonfasting, after last dose Day 14): 90.1%
α4β7 % RO at 24 h post last dose on Day 14 (200 mg capsule nonfasting, all participants): ≥ 95%
time post last dose (Day 14) until which α4β7 % RO≥95% was sustained (200 mg tablet fasting): 72 h
time post last dose (Day 14) until which α4β7 % RO≥95% was sustained (500 mg capsule nonfasting): 96 h
α4β7 % RO (MAD 20 mg QD capsule nonfasting, Day 1, 3 h postdose): 99.8%
α4β7 % RO (MAD 20 mg QD capsule nonfasting, Day 1, 24 h postdose): 37.8%
α4β7 % RO (MAD 20 mg QD capsule nonfasting, Day 14, 24 h postdose): 69.3%
α4β7 % RO (MAD 20 mg QD capsule nonfasting, Day 14, predose): 70.8%
change of α4β7 % RO post multiple once daily doses (MAD 20 mg, Day 1 to Day 14): accumulation
α4β7 % RO (MAD 80 mg QD capsule nonfasting, Day 1, 3 h postdose): 99.9%
α4β7 % RO (MAD 80 mg QD capsule nonfasting, Day 1, 24 h postdose): 98.1%
α4β7 % RO (MAD 80 mg QD capsule nonfasting, Day 14, 24 h postdose): 99.4%
α4β7 % RO (MAD 80 mg QD capsule nonfasting, Day 14, predose): 99.3%
target engagement of α4β7 at 24 h on Day 1 (MAD 80 mg nonfasting): achieved full target engagement
α4β7 % RO (MAD 200 mg QD capsule nonfasting, Day 1, 24 h postdose): 99.8%
α4β7 % RO (MAD 200 mg QD capsule nonfasting, Day 14, 24 h postdose): 99.8%
α4β7 % RO (MAD 200 mg QD capsule nonfasting, Day 14, predose): 99.9%
α4β7 % RO (MAD 200 mg QD tablet fasting, Day 1, 3 h postdose): 99.9%
α4β7 % RO (MAD 200 mg QD tablet fasting, Day 1, 24 h postdose): 99.8%
α4β7 % RO (MAD 200 mg QD tablet fasting, Day 14, 24 h postdose): 99.9%
α4β7 % RO (MAD 200 mg QD tablet fasting, Day 14, predose): 100%
α4β7 % RO (MAD 500 mg QD capsule nonfasting, Day 1, 3 h postdose): 99.9%
α4β7 % RO (MAD 500 mg QD capsule nonfasting, Day 1, 24 h postdose): 99.9%
α4β7 % RO (MAD 500 mg QD capsule nonfasting, Day 14, 24 h postdose): 99.9%
α4β7 % RO (MAD 500 mg QD capsule nonfasting, Day 14, predose): 99.9%
α4β7 % RO 24 h post the last once daily dose on Day 14 (MAD all doses ≥80 mg, in 100% of participants): ≥ 95%
α4β7 % RO (SAD 20 mg liquid-filled capsule fasting, Day 1, 3 h postdose): 100%
α4β7 % RO (SAD 20 mg liquid-filled capsule fasting, Day 1, 24 h postdose): 35.9%
α4β7 % RO (SAD 60 mg liquid-filled capsule fasting, Day 1, 3 h postdose): 100%
α4β7 % RO (SAD 60 mg liquid-filled capsule fasting, Day 1, 24 h postdose): 63.4%
α4β7 % RO (SAD 200 mg liquid-filled capsule fasting, Day 1, 3 h postdose): 99.9%
α4β7 % RO (SAD 200 mg liquid-filled capsule fasting, Day 1, 24 h postdose): 99.7%
α4β7 % RO (SAD 500 mg liquid-filled capsule fasting, Day 1, 3 h postdose): 99.9%
α4β7 % RO (SAD 500 mg liquid-filled capsule fasting, Day 1, 24 h postdose): 99.8%
α4β7 % RO (SAD 1000 mg liquid-filled capsule fasting, Day 1, 3 h postdose): 99.6%
α4β7 % RO (SAD 1000 mg liquid-filled capsule fasting, Day 1, 24 h postdose): 99.8%
α4β7 % RO (full target engagement) (SAD fasting, 3 h postdose, all doses tested): ≥ 95%
subjects with full target engagement (% RO≥95) sustained 24 h postdose (SAD fasting, doses ≥200 mg): 100%

From patent US20250228864A1, “THERAPIES FOR THE TREATMENT OF INFLAMMATORY BOWEL DISEASE” (Gilead Sciences, Inc., priority 2023, published 2025)
